Results published in patent US10945938B2, “Lactone-containing compositions for malodor elimination” (Takasago International Corporation, priority 2014, dated 2021).
“And” between values parts separate entries of the source, which are not always exact repeats. Equal values may be shown once.

Key:
[1] = Methyl mercaptan suppression analysis by GC-PFPD, aqueous conditions (Examples 1-4); conditions: for Methyl Mercaptan Suppression (%): ethanol/deionized water, about 10 ppm methyl mercaptan sodium salt, room temperature 2 hours, replicate values; for suppression of the amount of methyl mercaptan (in words): lactone alone, 100 or 200 ppm, aqueous conditions, Tables 1-4
Excerpt: (§1) Methyl mercaptan suppression analysis was used to evaluate malodor elimination effects of the compounds. Methyl mercaptan is known to be a major oral malodor material. For example, methyl mercaptan is found in the oral cavity of halitosis patients and also found in malodor producing food products (e.g., garlic). A multipurpose sampler (MPS 2, Gerstel Inc, Baltimore Md.)—Gas Chromatography (6890N, Agilent Technologies Inc, Wilmington Del.) with the Pulsed Flame Photometric Detector (PFPD, model 5380, OI Analytical, College Station, Tx) was used for the methyl mercaptan analysis. 0.5% (w/v) sodium thiomethoxide, which is a sodium salt of methyl mercaptan (purchased from Aldrich chemical company, Inc. Allentown, Pa.) in deionized water was used as the methyl mercaptan stock solution, which was freshly prepared for every test day.
200 ppm or 100 ppm lactone (36 μl of 1% (200 ppm) or 0.5% (100 ppm) (w/v) of the test malodor eliminating compounds in 200 proof ethanol), 144 μl of 200 proof ethanol, and 1620 μl of deionized water were added into a 2 ml GC vial. The prepared vial was placed on a sample tray of the multipurpose sampler-GC-PFPD. 3.6 μl of methyl mercaptan stock solution was added in the GC vial using the multipurpose sampler, and the GC vial was left to sit at room temperature for 2 hours. 0.4 μl of the test solution was injected into the GC inlet (an Agilent tapered focus liner with glass wool was installed, split mode, 10:1 split ratio) using the multipurpose sampler. The carrier gas flow rate was 1.5 ml/min (in constant flow mode) and the Agilent DB-1MS UI column (L60 m×ID 0.250 mm×thickness 0.25 μm) was used for the analysis. […] The GC oven was held at 280° C. for 5 minutes. Ethanol alone was used as a blank control. The final concentration of test malodor eliminating compounds were 200 ppm or 100 ppm, and final methyl mercaptan sodium salt concentration was about 10 ppm.
Malodor (methyl mercaptan) suppression was calculated as follows: Malodor (methyl mercaptan) Suppression (%)=(GC area of blank control sample−GC area of test sample)/GC area of blank control sample×100.

[2] = Methyl mercaptan suppression analysis by GC-PFPD, non-aqueous (ethanol) conditions (Examples 5-9); conditions: for Methyl Mercaptan Suppression (%): 200 proof ethanol, 10 ppm methyl mercaptan sodium salt, room temperature 2 hours
Excerpt: as §1
For the screening test, 100 ppm lactone (20 μl of 0.5% of lactone in 200 proof ethanol (w/v)), 300 ppm lactone (30 μl of 1% of lactone in 200 proof ethanol (w/v)), 200 ppm phenolic compound (20 μl of 1% of phenolic compound in 200 proof ethanol (w/v)) and 300 ppm phenolic compound (30 μl of 1% of phenolic compound in 200 proof ethanol (w/v)) were tested. In addition, various combinations of a lactone and a phenolic compound were tested. The lactones and phenolic compounds were pipetted into 2 ml GC vials, and 200 proof ethanol was added up to 1000 μl. The prepared vial was placed on a sample tray of the multipurpose sampler-GC-PFPD. 2 μl methyl mercaptan stock solution was added in the GC vial utilizing the multipurpose sampler, and the vial was left to sit at room temperature for 2 hours. 0.4 μl of the test solution was injected into the GC inlet (an Agilent tapered focus liner with glass wool was installed, split mode, 10:1 split ratio) using the multipurpose sampler. The carrier gas flow rate was 1.5 ml/min (in constant flow mode) and the Agilent DB-1 MS UI column (L60 m×ID 0.250 mm×thickness 0.25 μm) was used for the analysis. The temperature of the GC oven started at 40° C. and after 5 minutes, the temperature was increased to 180° C. at a speed of 20° C./min, and subsequently to 280° C. at a speed of 40° C./min, which was held for 5 minutes.
200 proof ethanol alone was used as a blank control. The final concentration of the methyl mercaptan sodium salt was 10 ppm.
Malodor (methyl mercaptan) suppression was calculated as follows: Malodor (methyl mercaptan) Suppression (%)=(GC area of blank control sample−GC area of test sample)/GC area of blank control sample×100.

[3] = 200 ppm test compound alone, values of several testing sets
[4] = 300 ppm test compound alone, replicate values

Structure (SMILES)	Methyl Mercaptan Suppression (%) ([1]; 100 ppm test compound alone)	suppression of the amount of methyl mercaptan (in words) [1]	Methyl Mercaptan Suppression (%) [2, 4]	further results
O=C1C=CCO1 [2(5H) furanone]	97% and 95% and 100%	suppressed the amount of methyl mercaptan	–	–
CCCCOCc1ccc(O)c(OC)c1 [Hotact ®VBE, vanillyl butyl ether]	–	–	13% (2×) and 10%	Methyl Mercaptan Suppression (%) [2, 3]: 13% and 7% and 8% and 10% and 12% and 17%
CC1=CCC(=O)O1 [angelica lactone alpha]	47% and 31% and 69%	suppressed the amount of methyl mercaptan	32% and 22% and 30%	Methyl Mercaptan Suppression (%) ([1]; 200 ppm test compound alone): 94% and 93% and 86%
CC1C=CC(=O)O1 (stereo not drawn) [angelica lactone beta]	10% and 26% and 41%	suppressed the amount of methyl mercaptan	–	–
O=C1O[C@H]([C@@H](O)CO)C(O)=C1O [ascorbic acid, reference compound]	–	–	–	Methyl Mercaptan Suppression (%) [2, 3]: 11%; synergistic malodor suppression or elimination effect of the combination with a phenolic compound (in words) ([2]; ethanol conditions, combination compared with additive effect of single components): do not exhibit a synergistic malodor elimination effect when combined with phenolic compounds
C=CCc1ccc(O)c(OC)c1 [eugenol]	–	–	8% and 14% and 11%	–
COC(=O)c1ccccc1O [methyl salicylate]	–	–	9% and 10% and 8%	–
CC1=C2CCC(C)CC2OC1=O (stereo not shown) [mint lactone]	–	suppressed the amount of methyl mercaptan	–	Methyl Mercaptan Suppression (%) ([1]; 200 ppm test compound alone): 87% and 100% (2×)
